Data on 23 compounds can be found in ChEMBL document CHEMBL5143709, “Synthesis and characterization of an orally bioavailable small molecule agonist of the apelin receptor” (Bioorg Med Chem, 2022).

Molecules are shown by their SMILES. Values after ≈ are worked out from the molar mass of the structure shown.

A short description of data set [1]: Metabolic stability in Sprague-Dawley rat liver microsomes assessed as parent compound remaining at 1 uM measured after 30 mins in the presence of NADPH by LC-MS analysis. Background: Microsomes from liver hold many membrane-bound enzymes, among them those of drug oxidation.
Data set [2] deals with T1, Apelin receptor (Homo sapiens, UniProt P35414).
T1 sequence (P35414 whole entry): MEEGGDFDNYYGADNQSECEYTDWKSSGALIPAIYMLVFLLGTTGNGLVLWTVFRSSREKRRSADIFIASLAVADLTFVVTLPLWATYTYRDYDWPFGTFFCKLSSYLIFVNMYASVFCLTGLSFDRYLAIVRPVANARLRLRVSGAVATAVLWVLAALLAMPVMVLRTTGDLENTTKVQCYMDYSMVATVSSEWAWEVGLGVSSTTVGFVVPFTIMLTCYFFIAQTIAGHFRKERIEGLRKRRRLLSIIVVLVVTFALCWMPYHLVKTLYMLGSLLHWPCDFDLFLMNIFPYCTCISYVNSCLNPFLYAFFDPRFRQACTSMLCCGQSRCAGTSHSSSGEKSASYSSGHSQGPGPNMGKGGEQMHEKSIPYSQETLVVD
In words: Agonist activity at human APJ receptor expressed in CHO cells assessed as inhibition of forskolin-induced cAMP accumulation measured after 30 mins by TR-FRET based LANCE cAMP assay. The format is functional, cell-based. For orientation: Changes in cAMP serve as a functional read-out for many G protein-coupled receptors.

Data set [3] addresses T1, Apelin receptor. The data set is described as follows: Agonist activity at human APJ receptor expressed in CHO cells co-expressing Galphaq16 assessed as stimulation of Ca2+ mobilization measured at 1 sec interval for 90 sec by fluorescent Calcium 5-dye based FLIPR-calcium mobilization assay. The format is functional, cell-based.
A short description of data set [4]: AUC in Sprague-Dawley rat at 10 mg/kg, po measured upto 24 hrs by LC-MS/MS analysis. The format is ADME, organism-based. Set-up: time < 24 hrs, dose 10 mg/kg, route po. The note with it: in vivo.
The nature of data set [5]: Clearance in Sprague-Dawley rat at 10 mg/kg, po measured upto 24 hrs by LC-MS/MS analysis. The format is ADME, organism-based. The note with it: in vivo.
Data set [6] can be described thus: Half-life in Sprague-Dawley rat at 10 mg/kg, po measured upto 24 hrs by LC-MS/MS analysis. The note with it: in vivo. The class given is ADME, organism-based.
Data set [7] is described as follows: Cmax in Sprague-Dawley rat at 10 mg/kg, po measured upto 24 hrs by LC-MS/MS analysis. The format is ADME, organism-based. Further details: dose 10 mg/kg, time < 24 hrs, route po. The note with it: in vivo.
Data set [8] in a line: Apparent permeability from apical to basolateral side in human Caco-2 cells by LC-MS/MS analysis. The format is ADME, cell-based. For orientation: Caco-2 monolayers are a common model of the intestinal barrier.
Data set [9] can be described thus: Plasma protein binding in rat by LC-MS/MS analysis. The class given is ADME, cell-free. The note with it: read-out: PPB (converted).
Data set [10] has as its target T1, Apelin receptor. In words: Agonist activity at human AGTRL1 expressed in CHO-K1 cells assessed as induction of beta-arrestin 2 recruitment incubated for 90 mins by PathHunter assay. The format is functional, cell-based.
A short description of data set [11]: Oral bioavailability in Sprague-Dawley rat at 10 mg/kg measured upto 24 hrs by LC-MS/MS analysis. The format is ADME, organism-based. The note with it: in vivo.
The nature of data set [12]: Efflux ratio of apparent permeability from basolateral to apical side over apical to basolateral side in human Caco-2 cells by LC-MS/MS analysis. The format is ADME, cell-based.
Data set [13] in a line: Apparent permeability from basolateral to apical side in human Caco-2 cells by LC-MS/MS analysis. The class given is ADME, cell-based.
Data set [14] is described as follows: Tmax in Sprague-Dawley rat at 10 mg/kg, po measured upto 24 hrs by LC-MS/MS analysis. The class given is ADME, organism-based. The note with it: in vivo.
A short description of data set [15]: MRT in Sprague-Dawley rat at 10 mg/kg, po measured upto 24 hrs by LC-MS/MS analysis. The class given is ADME, organism-based. The note with it: in vivo.
Data set [16] is described as follows: Solubility of the compound at pH 7.4. The format is physicochemical. The note with it: buffer.
Data set [17] addresses T2, Apelin receptor (Homo sapiens) (UniProt P35414).
T2 sequence (whole entry): T1 sequence (P35414 whole entry)
In words: Agonist activity at human AGTRL1 expressed in CHO-K1 cells assessed as induction of beta-arrestin 2 recruitment by measuring maximal efficacy incubated for 90 mins by PathHunter assay relative to control. The class given is functional, cell-based. The note with it: filed as agonist.

Usually amount remaining stands for the share of the starting amount still present when the sample was taken. As usually defined, the EC50 is the midpoint of the concentration-response curve. As a reminder, the AUC is the area under the concentration-time curve, a measure of exposure. Read a low AUC as low exposure. Usually CL/F stands for the apparent clearance, not corrected for the fraction that reaches the circulation. What is called half-life is the time needed for the level to fall by half in the phase considered. High values mean slow loss, low ones fast loss. One may read the Cmax as the peak of the concentration-time curve. A word on the Papp A→B: it is how fast a substance crosses the layer from the apical side. As usually defined, the bioavailability is the share of a dose that reaches the circulation, judged against a reference dose that is usually intravenous. Lower therefore signals poor availability. Usually efflux ratio stands for the permeability from basolateral to apical divided by that in the opposite direction, in the common usage. As usually defined, the Papp B→A is how fast a substance crosses the layer from the basolateral side. Broadly, the Tmax is the time at which the peak concentration occurs. Usually MRT stands for the average time that molecules of a dose stay in the body. Broadly, the solubility is the dissolved amount per volume that the medium holds. A high value points to a readily soluble substance. What is called Emax is the maximal effect, on the per cent scale that the assay sets.

For the compound `COc1cccc(F)c1-c1cc(C(=O)N[C@@H](CCN2CCCCC2)CC(=O)NC2CCC2)nn1C1CCCC1`, the fraction remaining at 0.5 h, 1 µM in data set [1] came out at 74.3%. Further, in data set [2], the EC50 was determined as 5.6 nM.

For `O=C(C[C@H](CCN1CCCCC1)NC(=O)c1cc(-c2ccsc2C(F)(F)F)n(C2CCCC2)n1)NC1CCC1`, the EC50 in data set [3] is 538 nM.

As for `O=C(C[C@H](CCN1CCOCC1)NC(=O)c1cc(-c2ccccc2C(F)(F)F)n(C2CCCC2)n1)NC1CCC1`, the EC50 came to 69 nM in data set [3] and 28 nM in [2].

Consider `O=C(C[C@@H](CN1CCCC(F)(F)C1)NC(=O)c1cc(-c2ccccc2C(F)(F)F)n(C2CCCC2)n1)NC1CCC1`, for which the EC50 in data set [3] was 910 nM.

In the case of `O=C(C[C@H](CCN1CCCC(F)(F)C1)NC(=O)c1cc(-c2ccccc2C(F)(F)F)n(C2CCCC2)n1)Nc1nnn[nH]1`, in data set [4], the AUC at 24 h worked out at 5850 ng·h/mL. The CL/F in data set [5] came out at 28 mL/min/kg. In addition, the half-life in data set [6] was 4.1 h. Besides, the EC50 turned out to be 24 nM in [3], 463 nM in data set [10] and 6.5 nM in [2]. The Cmax in data set [7] was determined as 1580 ng/mL. Further, the Papp A→B in [8] was determined as 8 ×10⁻⁶ cm/s. Besides, the fraction unbound in data set [9] was less than 0.006. The same compound gave a bioavailability in [11] of more than 95%. The efflux ratio in data set [12] stood at 1. In addition, the Papp B→A in data set [13] was 8 ×10⁻⁶ cm/s. In addition, the Tmax in [14] stood at 0.4 h. Also, the MRT in data set [15] was 5.1 h. Besides, the solubility in data set [16] is more than 1000 µM. Further, the Emax in data set [17] is 80%.

In the case of `CC(F)(F)c1ccccc1-c1cc(C(=O)N[C@@H](CCN2CCCCC2)CC(=O)NC2CCC2)nn1C1CCCC1`, the fraction remaining at 0.5 h, 1 µM in data set [1] was found to be 77.1%. The EC50 in data set [2] is 4.3 nM.

In the case of `Cc1cnn(CC[C@@H](CC(=O)NC2CCC2)NC(=O)c2cc(-c3ccccc3C(F)(F)F)n(C3CCCC3)n2)c1`, the Papp A→B in [8] turned out to be 8 ×10⁻⁶ cm/s. The EC50 in [2] amounted to 54 nM. Further, in data set [12], the efflux ratio is 3. For the same compound, in data set [13], the Papp B→A was found to be 24 ×10⁻⁶ cm/s.

For `CC(C)CN(C)CC[C@@H](CC(=O)NC1CCC1)NC(=O)c1cc(-c2ccccc2C(F)(F)F)n(C2CCCC2)n1`, the amount remaining at 0.5 h, 1 µM in [1] stood at 63.6%. In addition, the EC50 in data set [2] stood at 0.35 nM.

Regarding `C#Cc1ccccc1-c1cc(C(=O)N[C@@H](CCN2CCCCC2)CC(=O)NC2CCC2)nn1C1CCCC1`, the concentration for a half-maximal effect (EC50) in [3] is 267 nM.

As for `O=C(C[C@H](CCN1CC2(COC2)C1)NC(=O)c1cc(-c2ccccc2C(F)(F)F)n(C2CCCC2)n1)NC1CCC1`, the EC50 in [3] came out at 162 nM.

Consider `O=C(C[C@H](CCN1CCCC[C@H]1C(F)(F)F)NC(=O)c1cc(-c2ccccc2C(F)(F)F)n(C2CCCC2)n1)NC1CCC1`, for which the EC50 in data set [3] turned out to be 31 nM; in [2], 6 nM. In addition, the share remaining at 0.5 h, 1 µM in [1] is 6.04%.

For the compound `CN(C)CC[C@@H](CC(=O)NC1CCC1)NC(=O)c1cc(-c2ccccc2C(F)(F)F)n(C2CCCC2)n1`, in [3], the EC50 was 834 nM.

For `CCc1ccccc1-c1cc(C(=O)N[C@@H](CCN2CCCCC2)CC(=O)NC2CCC2)nn1C1CCCC1`, in data set [1], the amount remaining at 0.5 h, 1 µM turned out to be 76.5%. The EC50 in data set [2] is 7 nM.

Regarding `CN(C(=O)[C@H](CC(=O)NC1CCC1)NC(=O)c1cc(-c2ccccc2C(F)(F)F)n(C2CCCC2)n1)C1CCCCC1`, in data set [3], the EC50 is 879 nM.

In the case of `CN(C[C@H](CC(=O)NC1CCC1)NC(=O)c1cc(-c2ccccc2C(F)(F)F)n(C2CCCC2)n1)C1CCCCC1`, the EC50 in [3] was found to be 5120 nM.

In the case of `O=C(C[C@H](CCN1CCCCC1)NC(=O)c1cc(-c2ccccc2C(F)(F)F)n(C2CCCC2)n1)NC1CCC1`, the amount remaining at 0.5 h, 1 µM in data set [1] came out at 74.6%. Also, the EC50 in [2] is 2.4 nM. For the same compound, the efflux ratio in [12] turned out to be 304. Further, the Papp B→A in data set [13] is 52 ×10⁻⁶ cm/s.

In the case of `O=C(C[C@H](CCc1ccc(F)cc1)NC(=O)c1cc(-c2ccccc2C(F)(F)F)n(C2CCCC2)n1)NC1CCC1`, the EC50 in [3] was 103 nM; in [2], 15 nM.

Consider `O=C(C[C@H](CCN1CCCCC1)NC(=O)c1cc(-c2cscn2)n(C2CCCC2)n1)NC1CCC1`, for which the EC50 in data set [3] was more than 10000 nM.

Consider `O=C(C[C@H](CCN1CCCCC1)NC(=O)c1cc(-c2ccccc2C2CC2)n(C2CCCC2)n1)NC1CCC1`, for which the share remaining at 0.5 h, 1 µM in data set [1] worked out at 70.1%. Besides, the EC50 in data set [2] came to 6.4 nM.

`CN(CC[C@@H](CC(=O)NC1CCC1)NC(=O)c1cc(-c2ccccc2C(F)(F)F)n(C2CCCC2)n1)C1CCCCC1`: the EC50 in [3] was found to be 14 nM; in [2], 2 nM. Besides, in [1], the share remaining at 0.5 h, 1 µM came out at 65.2%. The Papp B→A in data set [13] is 68 ×10⁻⁶ cm/s.

For the compound `O=C(C[C@H](CCN1CCCC(F)(F)C1)NC(=O)c1cc(-c2ccccc2C(F)(F)F)n(C2CCCC2)n1)NC1CCC1`, the amount remaining at 0.5 h, 1 µM in data set [1] was found to be 38.7%. Besides, the Papp A→B in [8] was determined as 33 ×10⁻⁶ cm/s. In addition, the fraction unbound in data set [9] was 0.005. For the same compound, the values for the EC50 in data set [10] and in data set [2] were 5.4 nM and 3.4 nM, respectively. In data set [12], the efflux ratio was 1. Further, in [13], the Papp B→A worked out at 36 ×10⁻⁶ cm/s. This compound also showed a solubility in [16] of 4 µM (≈ 2.38 µg/mL). The Emax in data set [17] worked out at 107%.

Consider `O=C(C[C@H](CCN1CCCCC1)NC(=O)c1cc(-c2cccc[n+]2[O-])n(C2CCCC2)n1)NC1CCC1`, for which, in [3], the EC50 is more than 10000 nM.

Consider `O=C(C[C@@H](CN1CCC(F)(F)C1)NC(=O)c1cc(-c2ccccc2C(F)(F)F)n(C2CCCC2)n1)NC1CCC1`, for which the EC50 in [3] was found to be 1210 nM.
